Values after ≈ are worked out from the molar mass of the structure shown. Where two headings read alike, the source gives them in different places. Values belong to the molecule of their own block, whether it stands above or below them.
Columns and labels:
[1] = tested on: carbapenem-resistant Acinetobacter baumannii (CRAB) clinical isolates; assay: Broth microdilution MIC, CRAB isolates; assay type: cell-based; details: for CLSI % Res / CLSI % Sus: CLSI BP; for CLSI % Res: for MEM-ANT3310 % at ≥16 µg/mL; for CLSI % Sus: for MEM-ANT3310 % inhibited at ≤8 µg/mL; for EUCAST % Res / EUCAST % Sus: EUCAST BP; for MIC50 / MIC90: Acinetobacter baumannii; for MIC50: read-out: MIC50; for MIC90: read-out: MIC90
Protocol: (§1) All isolates were randomly selected from the frozen culture collection of IHMA collected in 2018 and 2019. Matrix-assisted laser desorption ionization-time of flight mass spectrometry was used to confirm the identity of the organisms tested (Bruker Daltonics, Bremen, Germany).
(§2) MICs for all antimicrobial agents were determined at IHMA by broth microdilution in accordance with both CLSI ([17]) and EUCAST ([18]) guidelines. Microtiter panels were prepared by IHMA and stored at −70°C in cation-adjusted Mueller Hinton broth (CAMHB) (Becton Dickinson). Iron-depleted CAMHB was used to test cefiderocol. Panels containing ANT3310 were prepared fresh on the day of testing. […] MIC values corresponded to the first well with no visible growth. Quality control testing was performed on each day of testing with E. coli ATCC 25922, P. aeruginosa ATCC 27853, K. pneumoniae ATCC 700603 and BAA 1705, and A. baumannii NCTC 13304. MICs were interpreted using 2023 CLSI ([17]) and EUCAST ([18]) BPs.

[2] = tested on: OXA-producing Enterobacterales (OXA-CRE); assay: organism not typed; assay type: cell-based
Protocol: as §1, §2

[3] = tested on: KPC-producing Enterobacterales (KPC-CRE); assay: organism not typed; assay type: cell-based
Protocol: as §1, §2

[4] = tested on: A. baumannii clinical isolates; assay: Broth microdilution MIC, A. baumannii clinical isolates; assay type: cell-based, Acinetobacter baumannii; details: for CLSI % Res / CLSI % Sus: CLSI BP; for CLSI % Res: for MEM-ANT3310 % at ≥16 µg/mL; for CLSI % Sus: for MEM-ANT3310 % inhibited at ≤8 µg/mL; for EUCAST % Res / EUCAST % Sus: EUCAST BP; for MIC50 / MIC90: Acinetobacter baumannii; for MIC50: read-out: MIC50; for MIC90: read-out: MIC90
Protocol: as §1, §2

[5] = 2018 Global collection, CRAB (MEM MICs >4 µg/mL), N 363
[6] = 2018 Global collection, CRAB, N 363
[7] = 252 OXA-producing Enterobacterales, EUCAST BP
[8] = 180 KPC-producing Enterobacterales, EUCAST BP
[9] = 2018 Global collection, All A. baumannii, N 500
[10] = A. baumannii, one or both of the 2018/2019 collections
[11] = 2019 Global collection, CRAB (MEM MICs >4 µg/mL), N 340
[12] = 2019 Global collection, CRAB, N 340
[13] = 2019 Global collection, All A. baumannii, N 405

Compound: NCC[C@H](O)C(=O)N[C@@H]1C[C@H](N)[C@@H](O[C@H]2O[C@H](CN)[C@@H](O)[C@H](O)[C@H]2O)[C@H](O)[C@H]1O[C@H]1O[C@H](CO)[C@@H](O)[C@H](N)[C@H]1O [Amikacin, amikacin]
Number of isolates inhibited at MIC of 0.5 µg/mL [1, 5]: 1 | Number of isolates inhibited at MIC of 1 µg/mL [1, 5]: 9 | Number of isolates inhibited at MIC of 2 µg/mL [1, 5]: 25 | Number of isolates inhibited at MIC of 4 µg/mL [1, 5]: 20 | Number of isolates inhibited at MIC of 8 µg/mL [1, 5]: 5 | Number of isolates inhibited at MIC of 16 µg/mL [1, 5]: 10 | Number of isolates inhibited at MIC of 32 µg/mL [1, 5]: 11 | Number of isolates inhibited at MIC of >32 µg/mL [1, 5]: 282 | CLSI % Res [1, 6]: 77.7% | CLSI % Sus [1, 6]: 19.3% | EUCAST % Res [1, 6]: 83.5% | EUCAST % Sus [1, 6]: 16.5% | MIC50 [1, 5]: > 32 µg/mL | MIC90 [1, 5]: > 32 µg/mL | MIC50 [2]: 16 µg/mL (≈ 27.3 µM) | MIC90 [2]: > 64 µg/mL | CLSI % Res ([2]; 252 OXA-producing Enterobacterales, CLSI BP, for MEM-ANT3310 % at ≥16 µg/mL): 32.1% | CLSI % Sus ([2]; 252 OXA-producing Enterobacterales, CLSI BP, for MEM-ANT3310 % inhibited at ≤8 µg/mL): 59.5% | EUCAST % Res [2, 7]: 52.0% | EUCAST % Sus [2, 7]: 48.0% | MIC50 [3]: 16 µg/mL (≈ 27.3 µM) | MIC90 [3]: 64 µg/mL (≈ 109 µM) | CLSI % Res ([3]; 180 KPC-producing Enterobacterales, CLSI BP, for MEM-ANT3310 % at ≥16 µg/mL): 11.7% | CLSI % Sus ([3]; 180 KPC-producing Enterobacterales, CLSI BP, for MEM-ANT3310 % inhibited at ≤8 µg/mL): 57.8% | EUCAST % Res [3, 8]: 54.4% | EUCAST % Sus [3, 8]: 45.6% | Number of isolates inhibited at MIC of 0.5 µg/mL [4, 9]: 2 | Number of isolates inhibited at MIC of 1 µg/mL [4, 9]: 42 | Number of isolates inhibited at MIC of 2 µg/mL [4, 9]: 96 | Number of isolates inhibited at MIC of 4 µg/mL [4, 9]: 33 | Number of isolates inhibited at MIC of 8 µg/mL [4, 9]: 12 | Number of isolates inhibited at MIC of 16 µg/mL [4, 9]: 11 | Number of isolates inhibited at MIC of 32 µg/mL [4, 9]: 13 | Number of isolates inhibited at MIC of >32 µg/mL [4, 9]: 291 | CLSI % Res [4, 9]: 58.2% | CLSI % Sus [4, 9]: 39.2% | EUCAST % Res [4, 9]: 63% | EUCAST % Sus [4, 9]: 37% | MIC50 [4, 9]: > 32 µg/mL | MIC90 [4, 9]: > 32 µg/mL | MIC90 [4, 10]: ≥ 32 µg/mL

Compound: CN(C)[C@@H]1C(O)=C(C(N)=O)C(=O)[C@@]2(O)C(O)=C3C(=O)c4c(O)c(NC(=O)CN5CCCC5)cc(F)c4C[C@H]3C[C@@H]12 [Eravacycline, eravacycline]
Number of isolates inhibited at MIC of 0.25 µg/mL [1, 5]: 43 | Number of isolates inhibited at MIC of 0.5 µg/mL [1, 5]: 73 | Number of isolates inhibited at MIC of 1 µg/mL [1, 5]: 186 | Number of isolates inhibited at MIC of 2 µg/mL [1, 5]: 53 | Number of isolates inhibited at MIC of 4 µg/mL [1, 5]: 3 | Number of isolates inhibited at MIC of ≤0.125 µg/mL [1, 5]: 5 | MIC50 [1, 5]: 1 µg/mL (≈ 1.79 µM) | MIC90 [1, 5]: 2 µg/mL (≈ 3.58 µM) | MIC50 [2]: 1 µg/mL (≈ 1.79 µM) | MIC90 [2]: 2 µg/mL (≈ 3.58 µM) | MIC50 [3]: 0.5 µg/mL (≈ 0.895 µM) | MIC90 [3]: 2 µg/mL (≈ 3.58 µM) | Number of isolates inhibited at MIC of 0.25 µg/mL [4, 9]: 66 | Number of isolates inhibited at MIC of 0.5 µg/mL [4, 9]: 83 | Number of isolates inhibited at MIC of 1 µg/mL [4, 9]: 194 | Number of isolates inhibited at MIC of 2 µg/mL [4, 9]: 55 | Number of isolates inhibited at MIC of 4 µg/mL [4, 9]: 3 | Number of isolates inhibited at MIC of ≤0.125 µg/mL [4, 9]: 99 | MIC50 [4, 9]: 1 µg/mL (≈ 1.79 µM) | MIC90 [4, 9]: 2 µg/mL (≈ 3.58 µM) | MIC90 [4, 10]: 2 µg/mL (≈ 3.58 µM)

Number of isolates inhibited at MIC of 2 µg/mL [1, 11]: 9 | Number of isolates inhibited at MIC of 4 µg/mL [1, 11]: 29 | Number of isolates inhibited at MIC of 8 µg/mL [1, 11]: 92 | Number of isolates inhibited at MIC of 16 µg/mL [1, 11]: 97 | Number of isolates inhibited at MIC of >16 µg/mL ([1]; 2019 Global collection, CRAB, N 340, footnote c): 104^c | Number of isolates inhibited at MIC of ≤0.25 µg/mL ([1]; 2019 Global collection, CRAB, N 340, footnote d): 9^d | MIC50 [1, 11]: 16 µg/mL (≈ 44.3 µM) | MIC90 [1, 11]: > 16 µg/mL | Number of isolates inhibited at MIC of 0.5 µg/mL [4, 13]: 1 | Number of isolates inhibited at MIC of 1 µg/mL [4, 13]: 1 | Number of isolates inhibited at MIC of 2 µg/mL [4, 13]: 10 | Number of isolates inhibited at MIC of 4 µg/mL [4, 13]: 33 | Number of isolates inhibited at MIC of 8 µg/mL [4, 13]: 96 | Number of isolates inhibited at MIC of 16 µg/mL [4, 13]: 99 | Number of isolates inhibited at MIC of >16 µg/mL ([4]; 2019 Global collection, All A. baumannii, N 405, footnote c): 104^c | Number of isolates inhibited at MIC of ≤0.25 µg/mL ([4]; 2019 Global collection, All A. baumannii, N 405, footnote d): 61^d | MIC50 [4, 13]: 16 µg/mL (≈ 44.3 µM) | MIC90 [4, 13]: > 16 µg/mL | MIC90 [4, 10]: ≥ 32 µg/mL
Compound: C[C@H]1COc2c(N3CCN(C)CC3)c(F)cc3c(=O)c(C(=O)O)cn1c23 [Levofloxacin, levofloxacin]
CLSI % Res [1, 12]: 86.2% | CLSI % Sus [1, 12]: 5.3% | EUCAST % Res [1, 12]: 97.3% | EUCAST % Sus [1, 12]: 2.7% | CLSI % Res [4, 13]: 73.8% | CLSI % Sus [4, 13]: 18% | EUCAST % Res [4, 13]: 84.4% | EUCAST % Sus [4, 13]: 15.3%

Source: PMC10916402, “Meropenem-ANT3310, a unique β-lactam-β-lactamase inhibitor combination with expanded antibacterial spectrum against Gram-negative pathogens including carbapenem-resistant Acinetobacter baumannii” (Antimicrobial Agents and Chemotherapy, 2024)
